± gives the expanded uncertainty stated by the source.
Settings: Liquid; for mass density: Vibrating tube method; for speed of sound: Pulse-echo method

CCCCCCCCCC(=O)OCC [ethyl decanoate]
Settings | mass density, 343.15 K [kg/m3] | mass density, 353.15 K [kg/m3] | mass density, 363.15 K [kg/m3] | mass density, 373.15 K [kg/m3] | mass density, 383.15 K [kg/m3] | mass density, 393.15 K [kg/m3] | speed of sound, 343.15 K [m/s] | speed of sound, 363.15 K [m/s] | speed of sound, 383.15 K [m/s] | speed of sound, 403.15 K [m/s]
101.3 kPa | – | 814.4 ± 1 | 806.38 ± 1 | 797.32 ± 1 | 789.45 ± 1 | 780.85 ± 1 | – | 1065.9 ± 4.5 | 1001.3 ± 4.3 | 937.8 ± 4
10000 kPa | – | 823.62 ± 1.1 | 815.94 ± 1.1 | 807.87 ± 1.1 | 800.55 ± 1.1 | 792.15 ± 1.1 | – | 1130.1 ± 4.8 | 1071.1 ± 4.5 | 1013.4 ± 4.3
20000 kPa | – | 832.14 ± 1.1 | 824.71 ± 1.1 | 817.14 ± 1.1 | 810.35 ± 1.1 | 802.27 ± 1.1 | – | 1188.5 ± 5 | 1132.9 ± 4.8 | 1080.3 ± 4.6
30000 kPa | – | 839.63 ± 1.1 | 832.73 ± 1.1 | 825.49 ± 1.1 | 819.06 ± 1.1 | 811.47 ± 1.1 | – | 1241.2 ± 5.2 | 1188.3 ± 5 | 1138.6 ± 4.8
40000 kPa | – | 846.7 ± 1.1 | 840.08 ± 1.1 | 833.44 ± 1.1 | 826.96 ± 1.1 | 819.79 ± 1.1 | – | 1289.6 ± 5.4 | 1239.3 ± 5.2 | 1191.3 ± 5
50000 kPa | – | 853.22 ± 1.1 | 846.82 ± 1.1 | 840.48 ± 1.1 | 834.28 ± 1.1 | 827.43 ± 1.1 | – | 1334.7 ± 5.6 | 1286.4 ± 5.4 | 1240.5 ± 5.2
60000 kPa | – | 859.34 ± 1.1 | 853.11 ± 1.1 | 847.06 ± 1.1 | 841.17 ± 1.1 | 834.45 ± 1.2 | – | 1376.5 ± 5.8 | 1329.7 ± 5.6 | 1285.9 ± 5.4
70000 kPa | 871.46 ± 1.1 | 865.16 ± 1.1 | 859.26 ± 1.2 | 853.14 ± 1.2 | 847.62 ± 1.2 | 840.99 ± 1.2 | – | 1415.4 ± 5.9 | 1370.2 ± 5.7 | 1328.1 ± 5.6
80000 kPa | 876.76 ± 1.1 | 870.61 ± 1.2 | 864.82 ± 1.2 | 859.2 ± 1.2 | 853.58 ± 1.2 | 847.2 ± 1.2 | 1500.3 ± 6.3 | 1452.8 ± 6.1 | 1408.3 ± 5.9 | 1367.6 ± 5.7
90000 kPa | 881.86 ± 1.2 | 875.77 ± 1.2 | 870.11 ± 1.2 | 864.65 ± 1.2 | 859.32 ± 1.2 | 852.99 ± 1.2 | 1535.3 ± 6.4 | 1488.9 ± 6.2 | 1445 ± 6.1 | 1404.6 ± 5.9
100000 kPa | 886.72 ± 1.2 | 880.75 ± 1.2 | 875.14 ± 1.2 | 869.76 ± 1.2 | 864.87 ± 1.2 | 858.42 ± 1.2 | 1568.4 ± 9.6 | 1522.8 ± 9.3 | 1480 ± 9.1 | 1439.8 ± 8.8
110000 kPa | – | – | – | – | – | – | 1600.4 ± 9.8 | 1556 ± 9.5 | 1513.4 ± 9.3 | 1473.4 ± 9
120000 kPa | – | – | – | – | – | – | 1631.5 ± 10 | 1586.9 ± 9.7 | 1545.8 ± 9.5 | 1506.4 ± 9.3
130000 kPa | – | – | – | – | – | – | 1661.5 ± 10 | 1617.1 ± 9.9 | 1576.6 ± 9.7 | 1537.5 ± 9.4
140000 kPa | – | – | – | – | – | – | 1690 ± 10 | 1646.6 ± 10 | 1606.2 ± 9.9 | 1567.3 ± 9.6
150000 kPa | – | – | – | – | – | – | 1717.3 ± 10 | 1675.1 ± 10 | 1634.6 ± 10 | 1596.2 ± 9.8
170000 kPa | – | – | – | – | – | – | 1769.7 ± 11 | 1727.6 ± 11 | 1687.7 ± 10 | 1650.9 ± 10
190000 kPa | – | – | – | – | – | – | 1818.5 ± 11 | 1777 ± 11 | 1740.7 ± 11 | 1702.8 ± 10
210000 kPa | – | – | – | – | – | – | 1865 ± 12 | 1824.5 ± 11 | 1786.8 ± 11 | 1751.8 ± 11
